“And” between values parts separate entries of the source, which are not always exact repeats. Equal entries are not always repeated. Square brackets hold non-standard residues; d marks the D form. Peptide text beside a SMILES is read from it.
Experiments:
[1] = molecular target: Human IL-13 (Homo sapiens, UniProt P35225); assay: Surface plasmon resonance (SPR) binding assay, BIAcore 8K plus, immobilized Fc-tagged IL-13; settings: 25° C., human IL-13 with Fc-tag immobilized on CM5 chip, read-out: Binding Affinity (KD) for IL-13
Chain of Human IL-13 (P35225 25-146): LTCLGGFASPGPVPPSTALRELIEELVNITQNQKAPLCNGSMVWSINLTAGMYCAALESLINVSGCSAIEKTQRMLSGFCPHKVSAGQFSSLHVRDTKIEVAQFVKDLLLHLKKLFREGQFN
Protocol: A SPR assay was conducted to determine the binding affinity of the cyclic oligopeptides generated in Example 1 for IL-13 using a BIAcore 8K plus instrument (GE Healthcare). Human IL-13 with an Fc-tag was immobilized onto the surfaces of Series S Sensor CM5 (GE Healthcare) chips in the range of 5000 resonance units (RU). The binding kinetics were performed at 25° C. with a flow rate of 30 μL/min. The cyclic oligopeptides were analyzed in running buffer comprising 20 mM PBS, 2.7 mM KCl, […], 0.0500 Surfactant P20, pH 7.4, 1% DMSO, starting at 100 μM with gradient of ten two-fold dilutions using solvent correction mode.
FIGS. 2C, 3C, 4C, 5C, 6C, 7C, 8C, 9C, 10C, 11C, and 12C provide SPR response curves for the cyclic oligopeptides generated in Example 1, wherein the x-axis represents time of reaction and y-axis represents altitude of response (Response Units).

[2] = Skin permeability, Franz Cell diffusion cell with artificial skin, Transdermal Diffusion Tester, BCA assay; type: in vitro ADME; settings: for Average Permeation Rate After 1 Hour (%) / Average Permeation Rate After 24 Hours (%): 32° C., 1.0 mg/mL in PBS; for Average Permeation Rate After 1 Hour (%) / Papp at 1 h, 1 mg/mL: after 1 hour; for Papp at 1 h, 1 mg/mL: read-out: Average Permeability Coefficient (Kp) After 1 hour (converted); for Average Permeation Rate After 24 Hours (%) / Papp at 24 h, 1 mg/mL: after 24 hours; for Papp at 24 h, 1 mg/mL: read-out: Average Permeability Coefficient (Kp) After 24 hours
Protocol: As used herein, the term “skin permeation rate” of a cyclic oligopeptide is measured using artificial skin (Start M, Merck), and refers to the percentage of the cyclic oligopeptide that penetrate the artificial skin after certain amount of time. For example, if 60% of the total amount of a cyclic oligopeptide of this disclosure has penetrated the artificial skin after 24 hours, then the skin permeation rate of the cyclic oligopeptide is 60% after 24 hours.
As used herein, the term “skin permeability coefficient (Kp)” refers to the rate at which the cyclic oligopeptide penetrates the skin, as measured using artificial skin (Start M, Merck). In some embodiments, permeability coefficient (Kp)(cm/hr) is calculated with the following equation:
[formula] wherein Q(mg) refers to the total amount of cyclic oligopeptide that pass through the artificial skin within a certain amount of time; A(cm^2) refers to the internal cross-section area of the artificial skin in a diffusion cell; T(hr) refers to the total amount of time of cyclic oligopeptide permeation; and ΔC(mg/mL) refers to the concentration difference of the cyclic oligopeptide between the two sides of the artificial skin. In some embodiments, the diffusion cell is a Franz Cell.
Skin permeability of the cyclic oligopeptides generated in Example 1 was measured using Transdermal Diffusion Tester (TK-12D, Shanghai Kai Kai Industrial Co Ltd) and artificial skin (Start M, Merck). Three parallel experimental groups were set up for each sample. The skin permeability of cyclic oligopeptides was evaluated by the following steps: • 1) 2.0 mg cyclic oligopeptide was weighed and dissolved in 100 μL DMSO. Three parallel experimental groups were set up for each cyclic oligopeptide. The cyclic oligopeptide-containing solution was then slowly added dropwise to 1900 μL 1×PBS solution and mixed evenly to prepare a PBS solution with a final concentration of 1.0 mg/mL cyclic polypeptide. • 2) A magnetron was inserted into a Franz Cell diffusion cell, and an artificial skin was sandwiched in the middle of the diffusion cell with the smooth side of the artificial skin facing up. The diffusion cell was then fixed with clamps after assembly. • 3) 7.75 ml 1×PBS solution were then added to the diffusion cell without generating bubbles in the diffusion cell. The sampling port of the diffusion cell was then sealed with parafilm to reduce evaporation. • 4) The temperature of a Transdermal Diffusion Tester was then set to 32° C., and the magneton speed was set to 180 r/min. • 5) The assembled diffusion cell was then put into the Transdermal Diffusion Tester and preheated for 5-10 mins. • 6) 400 μL of 1.0 mg/mL cyclic oligopeptide solution prepared in step 1) was then added to the upper chamber of the diffusion cell, making it evenly dispersed on the surface of the artificial skin without air bubbles. The top port of the diffusion cell was then covered with parafilm to reduce evaporation. • 7) Starting from the time of adding the cyclic oligopeptide solution, samples of about 0.5 mL of the receiving solution were taken at six time points, 1 h, 2 h, 4 h, 8 h, 12 h and 24 h, using a plastic dropper to take out the samples from the sampling port of the diffusion cell. 0.5 mL of 1×PBS solution was added into the diffusion cell to restore the initial volume of the receiving solution. When sampling, the diffusion cell was tilted appropriately to avoid the generation of bubbles. The samples were then numbered and store at −20° C. • 8) A BCA Assay (Micro BCA Protein Assay Kit, Thermo Scientific) was conducted to measure the concentration of cyclic oligopeptide in samples obtained in step 7) (Actual Concentration of the cyclic oligopeptide at the particular time point). Three parallel groups were used. The weight of cyclic oligopeptide in each sample obtained in step 7) equals to Actual Concentration×0.5 mL. • 9) Permeation rate of each cyclic oligopeptide at each time point was calculated according to the following equation: […]

[3] = FIG. 2D
Source text: Table printed on a drawing sheet, FIG. 2D
The patent's description of the figure: FIG. 2A provides the mass spectrometry (MS) spectrum for Compound 1. FIG. 2B provides the high-performance liquid chromatography (HPLC) chromatogram for Compound 1. FIG. 2C provides surface plasmon resonance (SPR) assay curves showing the binding affinity of Compound 1 for IL-13, the x-axis represents time of reaction and y-axis represents altitude of response (Response Units). FIG. 2D illustrates skin permeation rate of Compound 1 for up to 24 hours. FIG. 2E illustrates average permeability coefficient (Kp) of Compound 1 for 1, 2, 4, 8, 12 and 24 hours.
First reader's note: Substance name is taken from the legend of the plot printed above the table; the values are skin permeation in three replicates, their average and their range.

[4] = FIG. 3D
Protocol: Table printed on a drawing sheet, FIG. 3D
The patent's description of the figure: FIG. 3A provides the MS spectrum for Compound 2. FIG. 3B provides the HPLC chromatogram for Compound 2. FIG. 3C provides SPR assay curves showing the binding affinity of Compound 2 for IL-13, the x-axis represents time of reaction and y-axis represents altitude of response (Response Units). FIG. 3D illustrates skin permeation rate of Compound 2 for up to 24 hours. FIG. 3E illustrates average permeability coefficient (Kp) of Compound 2 for 1, 2, 4, 8, 12 and 24 hours.
First reader's note: The substance name is taken from the legend of the plot printed above the table; the values are three replicate permeation rates, their average and their range.

[5] = FIG.4D
Protocol: Table printed on a drawing sheet, FIG.4D
The patent's description of the figure: FIG. 4A provides the MS spectrum for Compound 3. FIG. 4B provides the HPLC chromatogram for Compound 3. FIG. 4C provides SPR assay curves showing the binding affinity of Compound 3 for IL-13, the x-axis represents time of reaction and y-axis represents altitude of response (Response Units). FIG. 4D illustrates skin permeation rate of Compound 3 for up to 24 hours. FIG. 4E illustrates average permeability coefficient (Kp) of Compound 3 for 1, 2, 4, 8, 12 and 24 hours.
First reader's note: The substance name is printed only in the legend of the plot above the table; columns 2 to 4 are three replicate permeation measurements.

[6] = FIG. 5D
Protocol: Table printed on a drawing sheet, FIG. 5D
The patent's description of the figure: FIG. 5A provides the MS spectrum for Compound 4. FIG. 5B provides the HPLC chromatogram for Compound 4. FIG. 5C provides SPR assay curves showing the binding affinity of Compound 4 for IL-13, the x-axis represents time of reaction and y-axis represents altitude of response (Response Units). FIG. 5D illustrates skin permeation rate of Compound 4 for up to 24 hours. FIG. 5E illustrates average permeability coefficient (Kp) of Compound 4 for 1, 2, 4, 8, 12 and 24 hours.
First reader's note: The substance name is taken from the legend of the plot above the table on the same sheet; the values are skin permeation rates over time.

[7] = FIG. 6D
Protocol: Table printed on a drawing sheet, FIG. 6D
The patent's description of the figure: FIG. 6A provides the MS spectrum of Compound 5. FIG. 6B provides the HPLC chromatogram for Compound 5. FIG. 6C provides SPR assay curves showing the binding affinity of Compound 5 for IL-13, the x-axis represents time of reaction and y-axis represents altitude of response (Response Units). FIG. 6D illustrates skin permeation rate of Compound 5 for up to 24 hours. FIG. 6E illustrates average permeability coefficient (Kp) of Compound 5 for 1, 2, 4, 8, 12 and 24 hours.
First reader's note: The substance name Compound 5 comes from the legend of the plot printed above the table; the values are three replicate permeation measurements with their average and range.

[8] = FIG. 7D
Protocol: Table printed on a drawing sheet, FIG. 7D
The patent's description of the figure: FIG. 7A provides the MS spectrum for Compound 6. FIG. 7B provides the HPLC chromatogram for Compound 6. FIG. 7C provides SPR assay curves showing the binding affinity of Compound 6 for IL-13, the x-axis represents time of reaction and y-axis represents altitude of response (Response Units). FIG. 7D illustrates skin permeation rate of Compound 6 for up to 24 hours. FIG. 7E illustrates average permeability coefficient (Kp) of Compound 6 for 1, 2, 4, 8, 12 and 24 hours.
First reader's note: The substance name Compound 6 is taken from the legend of the plot printed above the table on the same sheet.

Row | SMILES | Kd [1] [µM] | Average Permeation Rate After 1 Hour (%) [2] [%] | Average Permeation Rate After 24 Hours (%) [2] [%] | Papp at 1 h, 1 mg/mL [2] [×10⁻⁶ cm/s] | Papp at 24 h, 1 mg/mL [2] [×10⁻⁶ cm/s] | Permeation Avg. (%) [3] | Permeation Avg. (%) [4] | Permeation Avg. (%) [5] | Permeation Avg. (%) [6] | Permeation Avg. (%) [7] | Permeation Avg. (%) [8]
1 | CC(C)[C@H]1NC(=O)[C@@H](Cc2ccccc2)NC(=O)[C@@H](CCCNC(=N)N)NC(=O)[C@@H]2CCCN2C(=O)[C@H](CCC(=O)O)NC(=O)[C@H](Cc2ccc(O)cc2)NC1=O [Compound 1, D-Arg D-Phe D- Val Tyr Glu Pro] (cyclo(EP[dR][dF][dV]Y)) | 16 | 18.54 | 42.06 | 11.1 | > 0.0278 | 23.80% and 30.38% and 34.53% and 39.28% |  |  |  |  | 
2 | CC(C)[C@H]1NC(=O)[C@H]([C@@H](C)O)NC(=O)[C@H](CCCNC(=N)N)NC(=O)[C@H]2CCCN2C(=O)[C@@H](Cc2ccccc2)NC(=O)[C@H](CCC(=O)O)NC1=O [Compound 2, Arg Thr D-Val Glu D-Phe D-Pro] (cyclo(E[dF][dP]RT[dV])) | 17.4 | 14.62 | 30.51 | 8.69 |  |  | 18.57% and 23.21% and 25.36% and 28.50% |  |  |  | 
3 | CC(C)[C@H]1NC(=O)[C@@H]([C@H](C)O)NC(=O)[C@H](CCC(=O)O)NC(=O)[C@H]2CCCN2C(=O)[C@H]2CCCN2C(=O)[C@H](Cc2c[nH]c3ccccc23)NC1=O [Compound 3, Glu D-Thr D-Val Trp D-Pro D-Pro] (cyclo(E[dT][dV]W[dP][dP])) | 22.8 | 19.61 | 36.59 | 11.7 |  |  |  | 24.16% and 28.65% and 31.31% and 34.61% |  |  | 
4 | CC(C)[C@H]1NC(=O)[C@H](CCC(=O)O)NC(=O)[C@H](CCCNC(=N)N)NC(=O)[C@H]2CCCN2C(=O)[C@H]2CCCN2C(=O)[C@H](Cc2c[nH]c3ccccc23)NC1=O [Compound 4, Arg Glu D-Val Trp D-Pro D-Pro] (cyclo(E[dV]W[dP][dP]R)) | 26.2 | 17.28 | 35.59 | 10.3 | > 0.0278 |  |  |  | 21.81% and 27.10% and 30.14% and 33.22% |  | 
5 | CC(C)[C@@H]1NC(=O)[C@H](Cc2c[nH]c3ccccc23)NC(=O)[C@H]2CCCN2C(=O)[C@H]2CCCN2C(=O)[C@H](CCC(=O)O)NC(=O)[C@H](CCCNC(=N)N)NC1=O [Compound 5, Trp Val Arg Glu D-Pro D-Pro] (cyclo(E[dP][dP]WVR)) | 47.1 |  | 48.73 | 13.4 |  |  |  |  |  | 29.54% and 37.22% and 40.94% and 45.90% | 
6 | CC(C)[C@H]1NC(=O)[C@@H]([C@H](C)O)NC(=O)[C@H](CCC(=O)O)NC(=O)[C@H](CCCNC(=N)N)NC(=O)[C@H](Cc2ccc(O)cc2)NC(=O)[C@H]2CCCN2C1=O [Compound 6, Tyr Arg Glu D-Thr D-Val D-Pro] (cyclo(E[dT][dV][dP]YR)) | 55.4 | 15.34 | 33.86 | 9.14 |  |  |  |  |  |  | 22.01% and 26.17% and 29.25% and 31.77%

From US12180307B2, “Interleukin-13 binding cyclic oligopeptides and methods of use thereof” (B.A.I. LABORATORIES, LLC, priority 2022, dated 2024)
